Experimental data: patent US12653814B2, “Benzimidazolone-based cinnamamide derivative as TRPV1 antagonist and pharmaceutical composition for treatment or prevention of pain containing same as active ingredient” (JMACKEM CO., LTD, priority 2020, dated 2026)

Columns and labels:
[1] = molecular target: T1, human TRPV1 (hTRPV1) (Homo sapiens, UniProt Q8NER1); assay: Evaluation of human pH inhibitory activity in hTRPV1-HEK recombinant cells; type: cell-based; settings: inhibition of activation at final pH 6.0, test substance 3 μM
T1 construct: host or cells: HEK (PrecisION hTRPV1-HEK recombinant cell line)
T1 sequence (Q8NER1 whole entry): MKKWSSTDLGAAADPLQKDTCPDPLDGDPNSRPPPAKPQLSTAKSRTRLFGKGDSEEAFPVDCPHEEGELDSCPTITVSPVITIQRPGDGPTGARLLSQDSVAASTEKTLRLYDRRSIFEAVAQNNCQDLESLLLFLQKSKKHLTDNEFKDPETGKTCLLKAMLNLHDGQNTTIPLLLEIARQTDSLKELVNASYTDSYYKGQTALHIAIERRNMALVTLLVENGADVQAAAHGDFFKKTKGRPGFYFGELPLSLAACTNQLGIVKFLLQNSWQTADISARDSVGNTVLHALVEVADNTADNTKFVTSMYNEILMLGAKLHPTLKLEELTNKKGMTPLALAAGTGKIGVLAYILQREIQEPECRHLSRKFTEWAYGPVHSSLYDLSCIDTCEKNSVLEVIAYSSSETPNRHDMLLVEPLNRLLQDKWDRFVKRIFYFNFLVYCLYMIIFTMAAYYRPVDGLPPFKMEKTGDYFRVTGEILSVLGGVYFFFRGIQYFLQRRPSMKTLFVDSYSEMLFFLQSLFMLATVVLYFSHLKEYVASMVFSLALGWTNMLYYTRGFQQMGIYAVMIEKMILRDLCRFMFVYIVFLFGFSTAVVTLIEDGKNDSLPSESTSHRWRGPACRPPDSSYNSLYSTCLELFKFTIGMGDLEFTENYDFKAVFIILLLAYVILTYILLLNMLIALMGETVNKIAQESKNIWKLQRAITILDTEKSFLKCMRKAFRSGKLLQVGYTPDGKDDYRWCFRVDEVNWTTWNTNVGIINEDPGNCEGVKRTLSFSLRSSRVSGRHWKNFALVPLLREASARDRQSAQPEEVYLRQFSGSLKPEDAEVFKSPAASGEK
Procedure: Evaluation of Human pH Inhibitory Activity
PrecisION™ hTRPV1-HEK recombinant cells (CYL3063) were purchased from Millipore and used. After culturing the above cells under the conditions of 37° C. and 5% CO2, the cells were inoculated in a 96-well plate at the density of 5×10^4 cells/well, followed by culture for 16 hours. Then, the medium was removed and 100 uL of a staining solution was put into each well, followed by culture for 30 minutes under the conditions of 37° C. and 5% CO2. After 30 minutes, all of the existing staining solution was removed and replaced with 100 uL of HBSS. Thereafter, the cells were acclimatized to room temperature for 15 minutes, and the test substances (example compounds and comparative example compounds of the present invention) were added to each well, followed by culture at room temperature for 15 minutes. Then, the final pH was adjusted to 6.0 using MES, and fluorescence was measured (ex485/em535). In the pH assay, the efficacy of the drug was evaluated using BCTC as a TRPV1 antagonist.

[2] = molecular target: T1, human TRPV1 (hTRPV1); assay: Ca2+ influx assay, antagonism against capsaicin in hTRPV1-HEK recombinant cells; type: cell-based; settings: capsaicin 10 nM as activator, Fluo4-NW fluorescence, read-out: hTRPV1 IC50 [cap]

Structure (SMILES) | hTRPV1 pH (%, 3 μM) [1] [%] | IC50 [2] [nM]
O=C(/C=C/c1ccc(C(F)(F)Cl)nc1OCC1CC1)Nc1cccc2[nH]c(=O)[nH]c12 [Example 17, (E)-3-(6-(chlorodifluoromethyl)-2-(cyclopropylmethoxy)pyridin-3-yl)-N-(2-oxo-2,3-dihydro-1H-benzo[d]imidazol-4-yl)acrylamide] | 83.20 | 56.9
CC1(c2ccc(/C=C/C(=O)Nc3cccc4[nH]c(=O)[nH]c34)c(OCC3CC3)n2)CC1 [Example 20, (E)-3-(2-(cyclopropylmethoxy)-6-(1-methylcyclopropyl)pyridin-3-yl)-N-(2-oxo-2,3-dihydro-1H-benzo[d]imidazol-4-yl)acrylamide] | 86.79 | 53.5
O=C(/C=C/c1ccc(C(F)F)nc1OCC1CC1)Nc1cccc2[nH]c(=O)[nH]c12 [Example 21, (E)-3-(2-(cyclopropylmethoxy)-6-(difluoromethyl)pyridin-3-yl)-N-(2-oxo-2,3-dihydro-1H-benzo[d]imidazol-4-yl)acrylamide] | 79.89 | 26.1
CC(F)(F)c1ccc(/C=C/C(=O)Nc2cccc3[nH]c(=O)[nH]c23)c(OCC2CC2)n1 [Example 22, (E)-3-(2-(cyclopropylmethoxy)-6-(1,1-difluoroethyl)pyridin-3-yl)-N-(2-oxo-2,3-dihydro-1H-benzo[d]imidazol-4-yl)acrylamide] | 90.86 | 31.2
O=C(/C=C/c1ccc(C(F)(F)F)nc1OCC1CCC1)Nc1cccc2[nH]c(=O)[nH]c12 [Example 25, (E)-3-(2-(cyclobutylmethoxy)-6-(trifluoromethyl)pyridin-3-yl)-N-(2-oxo-2,3-dihydro-1H-benzo[d]imidazol-4-yl)acrylamide] | 89.76 | 34.1
O=C(/C=C/c1ccc(C(F)(F)F)nc1OCC1CCCC1)Nc1cccc2[nH]c(=O)[nH]c12 [Example 26, (E)-3-(2-(cyclopentylmethoxy)-6-(trifluoromethyl)pyridin-3-yl)-N-(2-oxo-2,3-dihydro-1H-benzo[d]imidazol-4-yl)acrylamide] | 95.11 | 54.4
CC(C)CSc1nc(C(F)(F)F)ccc1/C=C/C(=O)Nc1cccc2[nH]c(=O)[nH]c12 [Example 27, (E)-3-(2-(isobutylthio)-6-(trifluoromethyl)pyridin-3-yl)-N-(2-oxo-2,3-dihydro-1H-benzo[d]imidazol-4-yl)acrylamide] | 78.45 | 40.9
O=C(/C=C/c1ccc(C(F)(F)F)nc1-c1ccc(F)c(Cl)c1)Nc1cccc2[nH]c(=O)[nH]c12 [Example 33, (E)-3-(2-(3-chloro-4-fluorophenyl)-6-(trifluoromethyl)pyridin-3-yl)-N-(2-oxo-2,3-dihydro-1H-benzo[d]imidazol-4-yl)acrylamide] | 69.89 | 27.4
CC(C)(C)C#Cc1nc(C(F)(F)F)ccc1/C=C/C(=O)Nc1cccc2[nH]c(=O)[nH]c12 [Example 39, (E)-3-(2-(3,3-dimethyl-1-butyn-1-yl)-6-(trifluoromethyl)pyridin-3-yl)-N-(2-oxo-2,3-dihydro-1H-benzo[d]imidazol-4-yl)acrylamide] | 67.89 | 35.4
CC(C)COc1cc(C(F)(F)F)ccc1/C=C/C(=O)Nc1cccc2[nH]c(=O)[nH]c12 [Example 42, (E)-3-(2-isobutoxy-4-(trifluoromethyl)phenyl)-N-(2-oxo-2,3-dihydro-1H-benzo[d]imidazol-4-yl)acrylamide] | 78.89 | 35.4
CC(C)(C)c1ccc(/C=C/C(=O)Nc2cccc3[nH]c(=O)[nH]c23)c(OCC2CC2)c1 [Example 45, (E)-3-(4-(tert-butyl)-2-(cyclopropylmethoxy)phenyl)-N-(2-oxo-2,3-dihydro-1H-benzo[d]imidazol-4-yl)acrylamide] | 48.71 | 79.3
O=C(/C=C/c1ccc(C2CC2)cc1OCC1CC1)Nc1cccc2[nH]c(=O)[nH]c12 [Example 46, (E)-3-(4-cyclopropyl-2-(cyclopropylmethoxy)phenyl)-N-(2-oxo-2,3-dihydro-1H-benzo[d]imidazol-4-yl)acrylamide] | 57.38 | 72.9

Continued by falling IC50 [2], values first:

hTRPV1 pH (%, 3 μM) [1] [%] | IC50 [2] [nM] | Structure (SMILES)
82.34 | 26 | O=C(/C=C/c1ccc(C(F)(F)F)nc1-c1cccc(Cl)c1)Nc1cccc2[nH]c(=O)[nH]c12 [Example 31, (E)-3-(2-(3-chlorophenyl)-6-(trifluoromethyl)pyridin-3-yl)-N-(2-oxo-2,3-dihydro-1H-benzo[d]imidazol-4-yl)acrylamide]
67.88 | 23.7 | CC(C)c1cccc(-c2nc(C(F)(F)F)ccc2/C=C/C(=O)Nc2cccc3[nH]c(=O)[nH]c23)c1 [Example 32, (E)-3-(2-(3-isopropylphenyl)-6-(trifluoromethyl)pyridin-3-yl)-N-(2-oxo-2,3-dihydro-1H-benzo[d]imidazol-4-yl)acrylamide]
87.68 | 19.7 | O=C(/C=C/c1ccc(C(F)(F)F)cc1OCC1CC1)Nc1cccc2[nH]c(=O)[nH]c12 [Example 43, (E)-3-(2-(cyclopropylmethoxy)-4-(trifluoromethyl)phenyl)-N-(2-oxo-2,3-dihydro-1H-benzo[d]imidazol-4-yl)acrylamide]
37.26 | 15.9 | O=C(/C=C/c1cc(C(F)(F)F)nn1-c1cccc(Cl)c1)Nc1cccc2[nH]c(=O)[nH]c12 [Example 47, (E)-3-(1-(3-chlorophenyl)-3-(trifluoromethyl)-1H-pyrazol-5-yl)-N-(2-oxo-2,3-dihydro-1H-benzo[d]imidazol-4-yl)acrylamide]
48.62 | 14.2 | O=C(/C=C/c1ccc(C(F)(F)F)nc1-c1cccc(F)c1)Nc1cccc2[nH]c(=O)[nH]c12 [Example 30, (E)-3-(2-(3-fluorophenyl)-6-(trifluoromethyl)pyridin-3-yl)-N-(2-oxo-2,3-dihydro-1H-benzo[d]imidazol-4-yl)acrylamide]
95.87 | 11.8 | O=C(/C=C/c1ccc(C(F)(F)F)nc1-c1cccs1)Nc1cccc2[nH]c(=O)[nH]c12 [Example 35, (E)-N-(2-oxo-2,3-dihydro-1H-benzo[d]imidazol-4-yl)-3-(2-(thiophen-2-yl)-6-(trifluoromethyl)pyridin-3-yl)acrylamide]
37.85 | 11.1 | O=C(/C=C/c1ccc(C(F)(F)F)nc1-c1ccc(F)cc1)Nc1cccc2[nH]c(=O)[nH]c12 [Example 34, (E)-3-(2-(4-fluorophenyl)-6-(trifluoromethyl)pyridin-3-yl)-N-(2-oxo-2,3-dihydro-1H-benzo[d]imidazol-4-yl)acrylamide]
100.46 | 11 | O=C(/C=C/c1ccc(C(F)(F)F)nc1-c1ccco1)Nc1cccc2[nH]c(=O)[nH]c12 [Example 36, (E)-3-(2-(furan-2-yl)-6-(trifluoromethyl)pyridin-3-yl)-N-(2-oxo-2,3-dihydro-1H-benzo[d]imidazol-4-yl)acrylamide]
29.43 | 9.95 | Cc1cccc(-n2nc(C(F)(F)F)cc2/C=C/C(=O)Nc2cccc3[nH]c(=O)[nH]c23)c1 [Example 48, (E)-N-(2-oxo-2,3-dihydro-1H-benzo[d]imidazol-4-yl)-3-(1-(m-tolyl)-3-(trifluoromethyl)-1H-pyrazol-5-yl)acrylamide]
